In brackets after ≈: the same amount, converted by molar mass.
Key:
MRSA (ATCC #33591) = assay: MIC, dilution antimicrobial susceptibility test; type: cell-based, Methicillin-resistant Staphylococcus aureus; conditions: Staphylococcus aureus, 18 h
Description: (§1) Ecteinamycin was tested for antibacterial activity against C. difficile (ATCC BAA-1870), MRSA (ATCC #33591), MSSA (ATCC #29213), E. coli (ATCC #25922), P. aeruginosa (ATCC #27853), and VRE (ATCC), and MICs were determined using a dilution antimicrobial susceptibility test for aerobic (MRSA, MSSA, E. coli, P. aeruginosa, and VRE) and anaerobic (C. difficile) bacteria. Ecteinamycin was dissolved in DMSO, serially diluted to 10 concentrations (0.0313-32 μg/mL), and tested in a 96-well plate. […] Ecteinamycin and vancomycin were tested in triplicate. Six untreated media controls were included on each plate. For MRSA, MSSA, E. coli, and P. aeruginosa, the plates were incubated at 33° C. for 18 h. For C. difficile, the plate was incubated at 36° C. for 48 h anaerobically and then read visually using a mirror apparatus. All manipulations to the plate were done inside the anaerobe chamber. The MIC was determined as the lowest concentration that inhibited visible growth.

MSSA (ATCC #29213) = assay: MIC, dilution antimicrobial susceptibility test; type: cell-based, Methicillin-sensitive Staphylococcus aureus; conditions: Staphylococcus aureus, 18 h
Description: as §1

C. difficile = conditions: reported; cited from earlier work
[1] = in vivo; cited from earlier work
[2] = tested on: S. aureus (ATCC #29213) cells; assay: Membrane depolarization assay (DiOC2(3), flow cytometry); type: cell-based; conditions: positive control, 10 μL of 500 μM in 1 mL
Description: S. aureus (ATCC #29213) cells were grown to log phase (14 h) in Mueller Hinton Broth cation-adjusted (MHB50) and were diluted to 0.07 OD600 with media. One mL aliquots were transferred to 1.5 mL centrifuge tubes and treated with the following in triplicate: 10 μL DMSO (control), 10 μL of 600 μg/mL ecteinamycin, 10 μL of 3.2 mg/mL ecteinamycin (1), 10 μL of 500 μM carbonyl cyanide m-chlorophenythydrazone (CCCP), and 10 μL of 3.2 mg/mL rifampicin. Additionally, each tube received 10 μL of 3 mM DiOC2(3) (3,3′-diethyloxacarbocyanine iodide). The tubes were shaken for 15 minutes at room temperature. The cells were then analyzed with a FACSCalibur (BD Biosciences) flow cytometer and CellQuestPro software (BD Biosciences). Collected data represent the geometric means of fluorescence of 40,000 gated events.
Flow cytometry was used to determine if ecteinamycin, like other polyether ionophore antibiotics, depolarizes cell membranes. 3,3′-diethyloxacarbocyanine iodide (“DiOC2(3)”) fluoresces green in bacterial cells but shifts to red when the cell membrane is depolarized. Therefore, the ratio of red to green fluorescence is indicative of the membrane potential. S. aureus ATCC […] cells were treated with ecteinamycin at concentrations of 6 and 32 μg/mL.
All cells except the DMSO negative control were treated with DiOC2(3) and analyzed by flow cytometry. […]

Q: For `CN[C@H](CC(C)C)C(=O)N[C@H]1C(=O)N[C@@H](CC(N)=O)C(=O)N[C@H]2C(=O)N[C@H]3C(=O)N[C@H](C(=O)N[C@H](C(=O)O)c4cc(O)cc(O)c4-c4cc3ccc4O)[C@H](O)c3ccc(c(Cl)c3)Oc3cc2cc(c3O[C@@H]2O[C@H](CO)[C@@H](O)[C@H](O)[C@H]2O[C@H]2C[C@](C)(N)[C@H](O)[C@H](C)O2)Oc2ccc(cc2Cl)[C@H]1O` [Vancomycin, reference compound], which MIC (MRSA (ATCC #33591)) is on record?
A: 1 µg/mL (≈ 0.69 µM)

Q: And the MIC (MSSA (ATCC #29213))?
A: 1 µg/mL (≈ 0.69 µM)

Q: For `CC[C@@]1([C@@H]2O[C@@H]([C@H]3O[C@@](O)(CO)[C@H](C)C[C@@H]3C)C[C@@H]2C)CC[C@H]([C@]2(C)CC[C@]3(C[C@H](O)[C@@H](C)[C@@H]([C@@H](C)[C@@H](OC)[C@H](C)C(=O)O)O3)O2)O1` [monensin], which MIC (C. difficile) is on record?
A: 0.5 µg/mL (≈ 0.745 µM)

Q: What about the oral bioavailability [1] of the same compound?
A: 30%

Q: With `N#CC(C#N)=NNc1cccc(Cl)c1` [CCCP, carbonyl cyanide m-chlorophenylhydrazone, reference compound] as the compound, how does the “membrane depolarization (ratio of red to green fluorescence)” value [2] read?
A: membrane depolarization to a greater extent than ecteinamycin

Q: Which MIC (C. difficile) does the source give for `CO[C@@H]1C[C@@H](C[C@H]2CC[C@H](C)[C@H]([C@@H](C)C(=O)O)O2)O[C@]2(O[C@](C)([C@H]3CC[C@@](C)([C@@H]4O[C@@H]([C@H]5O[C@@](O)(CO)[C@H](C)C[C@@H]5C)C[C@@H]4C)O3)C[C@H]2C)[C@@H]1C` [Nigericin] here?
A: 0.0025 µg/mL (≈ 0.00345 µM)

— patent US10660874B2, “Ecteinamycin, compositions and uses thereof” (Wisconsin Alumni Research Foundation, priority 2014, dated 2020)
